Values of other authors as cited in patent US20130039858A1, “NIR MATERIALS AND NANOMATERIALS FOR THERANOSTIC APPLICATIONS” (University of Florida Research Foundation, Inc., priority 2010, published 2013).

Details: in H2O

critical micelle concentration: about 0.32 mg/mL
Structure (SMILES): CC1(C)C(/C=C/C=C/C=C/C=C2\N(CCCCS(=O)(=O)O)c3ccc4ccccc4c3C2(C)C)=[N+](CCCCS(=O)(=O)[O-])c2ccc3ccccc3c21 [ICG, indocyanine green]
